According to patent publication US20140275280A1 (COYOTE PHARMACEUTICALS, INC., priority 2013, published 2014):

Assays:
[1] = Pharmacological activity of GGA isomers (data of the examples, test not specified); settings: at low concentrations
HSP70 [2] = assay: Time course of HSP70 expression by ELISA in select tissues after oral CNS-102; assay type: in vivo, Sprague-Dawley rats; settings: 12 mg/kg p.o
Experimental: CNS-102 at 12 mg/kg or PBS was administered orally to Sprague-Dawley rats and the time course of HSP70 protein expression in tissues, was measured by ELISA. HSP70 protein expression was determined for lung, testicle, spleen, liver, kidney, blood plasma, skin, peripheral blood monocytes, heart, eye, muscle, intestine, and stomach at each of three time points (8 h, 17 h, 24 h).

HSP70 [3] = assay: Time course of HSP70 expression by western blot in cortex and hippocampus after oral CNS-102; assay type: in vivo; design: HSP70 expression (western blot), treatment average: scale not given here
Experimental: The time course of protein expression, as measured by western blot for HSP70, was determined in triplicate for hippocampus, and cortex tissue samples taken from each of 5 animals per group at each of four time points (24, 48, 72, and 96 h) after treatment with either PBS or 12 mg/kg CNS-102, administered orally. The average expression for each treatment group is calculated at each time point for each tissue using PROC MIXED in SAS and are tabulated, along with the difference (delta) between treatment averages and a p-value comparing the difference to zero, below.

SMILES: CC(=O)CC/C=C(/C)CC/C=C(\C)CC/C=C(\C)CCC=C(C)C (single isomer, unassigned) [cis-isomer of GGA, 5Z, 9E, 13E geranylgeranyl acetone]
- pharmacological activity and dose-dependent relationship [1]: at best of minimal activity

SMILES: CC(=O)CC/C=C(\C)CC/C=C(\C)CC/C=C(\C)CCC=C(C)C (single isomer, unassigned) [trans-isomer of GGA, 5E, 9E, 13E geranylgeranyl acetone]
- pharmacological activity and dose-dependent relationship [1]: pharmacologically active and shows a dose-dependent relationship

SMILES: CC(=O)CC/C=C(\C)CC/C=C(\C)CC/C=C(\C)CCC=C(C)C [CNS-102]
- HSP70 Fold Induction vs. Vehicle Control (HSP70 [2]; Intestine, 8 h): 1.63 fold
- HSP70 Fold Induction vs. Vehicle Control (HSP70 [2]; Intestine, 17 h): 1.26 fold
- HSP70 Fold Induction vs. Vehicle Control (HSP70 [2]; Intestine, 24 h): 0.64 fold
- HSP70 Fold Induction vs. Vehicle Control (HSP70 [2]; PBMC, 8 h): 1.67 fold
- HSP70 Fold Induction vs. Vehicle Control (HSP70 [2]; PBMC, 17 h): 1.05 fold
- HSP70 Fold Induction vs. Vehicle Control (HSP70 [2]; PBMC, 24 h): 1.09 fold
- HSP70 Fold Induction vs. Vehicle Control (HSP70 [2]; Stomach, 8 h): 1.07 fold
- HSP70 Fold Induction vs. Vehicle Control (HSP70 [2]; Stomach, 17 h): 1.30 fold
- HSP70 Fold Induction vs. Vehicle Control (HSP70 [2]; Stomach, 24 h): 0.96 fold
- HSP70 Fold Induction vs. Vehicle Control (HSP70 [2]; heart, 17 h): 1.89 fold
- HSP70 Fold Induction vs. Vehicle Control (HSP70 [2]; heart, 24 h): 0.60 fold
- HSP70 Fold Induction vs. Vehicle Control (HSP70 [2]; kidney, 8 h): 1.11 fold
- HSP70 Fold Induction vs. Vehicle Control (HSP70 [2]; kidney, 17 h): 1.08 fold
- HSP70 Fold Induction vs. Vehicle Control (HSP70 [2]; kidney, 24 h): 0.92 fold
- HSP70 Fold Induction vs. Vehicle Control (HSP70 [2]; liver, 8 h): 1.24 fold
- HSP70 Fold Induction vs. Vehicle Control (HSP70 [2]; liver, 17 h): 1.00 fold
- HSP70 Fold Induction vs. Vehicle Control (HSP70 [2]; liver, 24 h): 0.89 fold
- HSP70 Fold Induction vs. Vehicle Control (HSP70 [2]; plasma, 8 h): 0.88 fold
- HSP70 Fold Induction vs. Vehicle Control (HSP70 [2]; plasma, 17 h): 1.09 fold
- HSP70 Fold Induction vs. Vehicle Control (HSP70 [2]; plasma, 24 h): 1.05 fold
- HSP70 Fold Induction vs. Vehicle Control (HSP70 [2]; spleen, 8 h): 0.64 fold
- HSP70 Fold Induction vs. Vehicle Control (HSP70 [2]; spleen, 17 h): 1.09 fold
- HSP70 Fold Induction vs. Vehicle Control (HSP70 [2]; spleen, 24 h): 1.04 fold
- HSP70 Fold Induction vs. Vehicle Control (HSP70 [2]; testicle, 8 h): 1.10 fold
- HSP70 Fold Induction vs. Vehicle Control (HSP70 [2]; testicle, 17 h): 1.03 fold
- HSP70 Fold Induction vs. Vehicle Control (HSP70 [2]; testicle, 24 h): 0.94 fold
- HSP70 expression (western blot), treatment average (HSP70 [3]; cortex, 24 hours after 12 mg/kg oral): −0.016
- HSP70 expression (western blot), treatment average (HSP70 [3]; cortex, 48 hours after 12 mg/kg oral): −0.45
- HSP70 expression, delta CNS-102 vs PBS (HSP70 [3]; cortex, 48 hours, 12 mg/kg oral, p-value 0.15): 0.11
- HSP70 expression (western blot), treatment average (HSP70 [3]; cortex, 72 hours after 12 mg/kg oral): 0.14
- HSP70 expression, delta CNS-102 vs PBS (HSP70 [3]; cortex, 72 hours, 12 mg/kg oral, p-value 0.13): 0.13
- HSP70 expression (western blot), treatment average (HSP70 [3]; cortex, 96 hours after 12 mg/kg oral): 0.04
- HSP70 expression, delta CNS-102 vs PBS (HSP70 [3]; cortex, 96 hours, 12 mg/kg oral, p-value 0.09): 0.19
- levels of HSP70 in the cortex after 24 h (HSP70 [3]; cortex, time points after 24 h, 12 mg/kg oral): No significant levels
- time of peak HSP70 expression in the hippocampus (HSP70 [3]; hippocampus, 12 mg/kg oral): > 48 h
- HSP70 expression (western blot), treatment average (HSP70 [3]; hippocampus, 24 hours after 12 mg/kg oral): −0.159
- HSP70 expression, delta CNS-102 vs PBS (HSP70 [3]; hippocampus, 24 hours, 12 mg/kg oral, p-value 0.16): −0.088
- HSP70 expression (western blot), treatment average (HSP70 [3]; hippocampus, 48 hours after 12 mg/kg oral): 0.02
- HSP70 expression, delta CNS-102 vs PBS (HSP70 [3]; hippocampus, 48 hours, 12 mg/kg oral, p-value 0.14): 0.2
- HSP70 expression (western blot), treatment average (HSP70 [3]; hippocampus, 72 hours after 12 mg/kg oral): −0.06
- HSP70 expression (western blot), treatment average (HSP70 [3]; hippocampus, 96 hours after 12 mg/kg oral): −0.32
- HSP70 expression, delta CNS-102 vs PBS (HSP70 [3]; hippocampus, 96 hours, 12 mg/kg oral, p-value 0.07): 0.17
